# Results taken from patent US4352788A, “Derivatives of 2,4,6-triiodo-isophthalic acid, processes for their synthesis and X-ray contrasting materials containing these” (Bracco Industria Chimica S.p.A., priority 1979, dated 1982).
# “Also recorded” adds a separate entry of the source. Like-named read-outs stand apart in the source and are kept apart here.
# Assays:
# Water solubility = type: physicochemical; conditions: for solubility: water
# [1] = cited from earlier work; for water solubility (in words): prior art
# [2] = Viscosity of aqueous solutions; type: physicochemical; conditions: for Viscosity at 37° C.: injection solution (Example 14)
# [3] = cited from earlier work
# [4] = Density of injection solution; type: physicochemical; conditions: injection solution (Example 14), in g/mL (unit assumed)
# Osmolality of solutions = type: physicochemical; conditions: 37° C.
# [5] = Solubility in organic solvents; type: physicochemical
# [6] = Stability (hydrolysis, aqueous solution); type: physicochemical
# [7] = Osmotic pressure of solutions; type: physicochemical; conditions: for Osmotic Pressure: 37° C.
# [8] = prior art; cited from earlier work
# [9] = compared with METRIZAMIDE; cited from earlier work
# [10] = aqueous solution containing 300 mg I/ml, 20° C.
# [11] = aqueous solution containing 300 mg I/ml, 37° C.
# [12] = aqueous solution containing 400 mg I/ml, 20° C.
# [13] = aqueous solution containing 400 mg I/ml, 37° C.
# [14] = at 20° C., Table 1, read-out: Solubility in Water
# [15] = at 25° C., read-out: Water solubility
structure (smiles),measurement,setting,value
"CC(O)C(=O)N(C)c1c(I)c(C(=O)NC(CO)CO)c(I)c(C(=O)NC(CO)CO)c1I (racemic) [d,L-5-(N-methyl-α-hydroxypropionyl-amino)-2,4,6-triiodo-isophthalic-acid-bis-(1,3-dihydroxyisopropylamide]",supersaturation of aqueous solutions,Water solubility,supersaturated
same,water solubility (in words),Water solubility,dissolves in water very readily
"CC(O)C(=O)Nc1c(I)c(C(=O)NC(CO)CO)c(I)c(C(=O)NC(CO)CO)c1I (racemic) [d,L-5-α-hydroxypropionylamino-2,4,6-triiodo-isophthalic-acid-bis-(1,3-dihydroxyisopropylamide)]",water solubility (in words),Water solubility,only limited solubility in water
"CC(=O)Nc1c(I)c(C(=O)NCC(O)CO)c(I)c(C(=O)NCC(O)CO)c1I (stereo not drawn) [5-acetylamino-2,4,6-triiodoisophthalic-acid-bis-(2,3-dihydroxypropylamide)]",water solubility,[1]; at 20°-40° C.,1 % (w/v)
same,water solubility (in words),[1],slightly water-soluble
"CC(=O)Nc1c(I)c(C(=O)N[C@H]2C(O)O[C@H](CO)[C@@H](O)[C@@H]2O)c(I)c(N(C)C(C)=O)c1I (stereo partly drawn) [C, 3-acetylamino-4-N-methyl-acetylamino-2,4,6-triiodobenzoylglucosamine, reference compound]",Viscosity,[2]; [10],11.7 cP
same,Viscosity,[2]; [11],5.98 cP
same,Viscosity,[2]; [12],77.8 cP
same,Viscosity,[2]; [13],26.9 cP
same,solubility,Water solubility; [14],~800 mg/mL
same,water solubility (in words),[1],readily water-soluble
same,stability in aqueous solutions (in words),[3]; prior art,relatively little stability in aqueous solutions
"CN(C(=O)CO)c1c(I)c(C(=O)NCC(O)CO)c(I)c(C(=O)NCC(O)CO)c1I (stereo not drawn) [Compound A, 5-(N-methyl-hydroxyacetylamino)-2,4,6-triiodo-isophthalic-acid-bis-(2,3-dihydroxypropylamide)]",Density at 37° C.,[4]; 200 mg iodine/ml,1.207
same,Density at 37° C.,[4]; 300 mg iodine/ml,1.316
same,Density at 37° C.,[4]; 420 mg iodine/ml,1.453
same,Osmolality,Osmolality of solutions; 250 mg I/ml,452 mOsm/kg
same,Osmolality,Osmolality of solutions; 300 mg I/ml,536 mOsm/kg
same,Osmolality,Osmolality of solutions; 350 mg I/ml,628 mOsm/kg
same,Solubility in ethanol (in words),[5],limited
same,Solubility in ethanol,[5]; ethanol at 25° C.,35 parts by volume
same,Solubility in ethanol,[5]; ethanol at the boiling point,20 parts by volume
same,solubility,"[5]; methanol, organic solvent or mixture",1000 mg/mL
same,solubility in methanol (in words),"[5]; methanol, listed as Example 9",very readily soluble
same,solubility in methanol (in words),"[5]; methanol, listed as Example 11",very soluble
same,stability (in words),[6],high stability
same,viscosity of aqueous solutions (in words),[2],low viscosity; also recorded: appreciably lower viscosity
same,Viscosity,[2]; [10],7.55 cP
same,Viscosity,[2]; [11],4.19 cP
same,Viscosity,[2]; [12],22.0 cP
same,Viscosity,[2]; [13],9.87 cP
same,Viscosity at 37° C.,[2]; 200 mg iodine/ml,1.87 cP
same,Viscosity at 37° C.,[2]; 300 mg iodine/ml,4.19 cP
same,Viscosity at 37° C.,[2]; 420 mg iodine/ml,20.03 cP
same,water solubility (in words),Water solubility,comparatively particularly high water-solubility; also recorded: higher water solubility
same,water solubility (in words),Water solubility; listed as Example 9,very readily soluble
same,water solubility (in words),Water solubility; listed as Example 11,very soluble
same,solubility,Water solubility; [14],> 1000 mg/mL
same,solubility,Water solubility; read-out: solubility in water,3000 mg/mL
same,Osmotic Pressure,[7]; 250 mg I/ml,11.52 atm
same,Osmotic Pressure,[7]; 300 mg I/ml,13.64 atm
same,Osmotic Pressure,[7]; 350 mg I/ml,15.98 atm
same,osmotic pressure (in words),[7]; compared with IOPAMIDOL,less than that of IOPAMIDOL
"C[C@H](O)C(=O)Nc1c(I)c(C(=O)NC(CO)CO)c(I)c(C(=O)NC(CO)CO)c1I [Compound B, L-5-α-hydroxypropionylamino-2,4,6-triiodo-isophthalic-acid-bis-(1,3-dihydroxyisopropylamide), reference compound]",Osmolality,Osmolality of solutions; 250 mg I/ml,514 mOsm/kg
same,Osmolality,Osmolality of solutions; 300 mg I/ml,619 mOsm/kg
same,Osmolality,Osmolality of solutions; 350 mg I/ml,737 mOsm/kg
same,Viscosity,[2]; [10],8.95 cP
same,Viscosity,[2]; [11],4.70 cP
same,Viscosity,[2]; [12],40.6 cP
same,Viscosity,[2]; [13],16.1 cP
same,water solubility,"Water solubility; at 20° C., text",89.7 % w/v
same,water solubility,"Water solubility; at 20° C., listed as IOPAMIDOL",440 mg of iodine per ml
same,toxicity (in words),[8],very low
same,Osmotic Pressure,[7]; 250 mg I/ml,13.09 atm
same,Osmotic Pressure,[7]; 300 mg I/ml,15.76 atm
same,Osmotic Pressure,[7]; 350 mg I/ml,18.77 atm
same,viscosity of concentrated aqueous solutions (in words),[9],lower viscosity
same,stability (in words),[3]; compared with METRIZAMIDE,higher stability
"C[C@H](O)C(=O)N(C)c1c(I)c(C(=O)NC(CO)CO)c(I)c(C(=O)NC(CO)CO)c1I [Example 1, L-5-(N-methyl-α-hydroxypropionyl-amino)-2,4,6-triiodoisophthalic-acid-bis-(1,3-dihydroxyisopropylamide)]",solubility,Water solubility; [15],≥ 1000 mg/mL
CCCN(C(=O)[C@H](C)O)c1c(I)c(C(=O)NC(CO)CO)c(I)c(C(=O)NC(CO)CO)c1I [Example 3],solubility,Water solubility; [15],≥ 1000 mg/mL
"CCCCN(C(=O)[C@H](C)O)c1c(I)c(C(=O)NC(CO)CO)c(I)c(C(=O)NC(CO)CO)c1I [Example 4, L-5-(N-butyl-α-hydroxypropionyl-amino)-2,4,6-triiodo-isophthalic-acid-bis-(1,3-dihydroxyisopropylamide)]",solubility,"Water solubility; temperature not stated, read-out: Water solubility",≥ 1000 mg/mL
"CN(C(=O)CO)c1c(I)c(C(=O)NCC2COC(C)(C)O2)c(I)c(C(=O)NCC2COC(C)(C)O2)c1I (stereo not drawn) [Example 13(A), 5-(N-methyl-hydroxyacetyl-amino)-2,4,6-triiodo-isophthalic-acid-bis-(2,3-isopropylidenedihydroxypropylamide)]",solubility in chloroform (in words),[5]; chloroform,very soluble
same,Solubility in ethanol (in words),[5],very soluble
same,solubility in methanol (in words),[5]; methanol,very soluble
same,water solubility (in words),Water solubility,only slightly soluble in water
"C[C@H](O)C(=O)Nc1c(I)c(C(=O)NC(CO)CO)c(I)c(C(=O)NC(CO)CO)c1I [IOPAMIDOL hydrate, reference compound]",water solubility,Water solubility; at 20° C.,307 mg of iodine per ml
same,solubility,"Water solubility; at 20° C., read-out: water solubility",627 mg/mL
